Results published in patent publication US9662341B2, “Multifunctional topical formulation for the treatment of acne vulgaris and other skin conditions” (Kantian Sciences Corporation, priority 2011, dated 2017).
Where two headings read alike, the source gives them in different places.

What was measured:
[1] = HONO form in ratios of >~2:1 acid/salt
acne = conditions: cited from earlier work
[2] = Percentage of mandelic acid in acid and salt forms at varying pH values; assay type: physicochemical
From the text: The same consideration of activity vs. acid:salt forms applies to mandelic acid, where the antimicrobial activity of an aqueous solution containing this material is strongly dependent on the pH of the system.

E. coli = test: Kill of E. coli within 30 seconds of contact (inventor's earlier studies); assay type: cell-based

SMILES: O=NO [nitrous acid]
- Nitrous Acid % (pH 1.5): 98.4%
- Nitrous Acid % (pH 2.0): 95.2%
- Nitrous Acid % (pH 2.3): 90.9%
- Nitrous Acid % (pH 2.6): 83.3%
- Nitrous Acid % (pH 2.8): 76.0%
- Nitrous Acid % (pH 3.0): 66.7%
- Nitrous Acid % (pH 3.3): 50.0%
- Nitrous Acid % (pH 3.5): 38.8%
- Nitrous Acid % (pH 4.0): 16.6%
- Nitrous Acid % (pH 4.5): 6.0%
- Nitrous Acid % (pH 5.0): 2.0%
- longer-range stability of nitrous acid systems [1]: significantly diminished

SMILES: O=NO [Nitrite]
- Nitrite % (pH 1.5): 1.6%
- Nitrite % (pH 2.0): 4.8%
- Nitrite % (pH 2.3): 9.1%
- Nitrite % (pH 2.6): 16.7%
- Nitrite % (pH 2.8): 24.0%
- Nitrite % (pH 3.0): 33.3%
- Nitrite % (pH 3.3): 50.0%
- Nitrite % (pH 3.5): 61.2%
- Nitrite % (pH 4.0): 83.4%
- Nitrite % (pH 4.5): 94.0%
- Nitrite % (pH 5.0): 98.0%

SMILES: O=C(O)CCCCCCCC(=O)O [azelaic acid]
- Time for acne lesions to start disappearing (acne; after starting topical application): one to two months
- Efficacy versus other topical Rx formulations (acne; benzoyl peroxide, tretinoin, antibiotics as comparators): works as well as other topical Rx formulations

SMILES: O=C(O)[C@H](O)c1ccccc1 [Mandelate]
- Mandelate % ([2]; pH 2.46): 10%
- Mandelate % ([2]; pH 2.81): 20%
- Mandelate % ([2]; pH 3.04): 30%
- Mandelate % ([2]; pH 3.23): 40%
- Mandelate % ([2]; pH 3.41): 50%
- Mandelate % ([2]; pH 3.59): 60%
- Mandelate % ([2]; pH 3.78): 70%
- Mandelate % ([2]; pH 4.01): 80%

SMILES: CC(O)C(=O)O (centres unmarked) [lactic acid]
- E. coli killed relative to malic acid (E. coli): 500 times

SMILES: O=C(O)C(O)c1ccccc1 (centres unmarked) [mandelic acid]
- Mandelic Acid % ([2]; pH 2.46): 90%
- Mandelic Acid % ([2]; pH 2.81): 80%
- Mandelic Acid % ([2]; pH 3.04): 70%
- Mandelic Acid % ([2]; pH 3.23): 60%
- Mandelic Acid % ([2]; pH 3.41): 50%
- Mandelic Acid % ([2]; pH 3.59): 40%
- Mandelic Acid % ([2]; pH 3.78): 30%
- Mandelic Acid % ([2]; pH 4.01): 20%
- E. coli killed relative to malic acid (E. coli): 1.5 million
- E. coli killed relative to lactic acid (E. coli; same conditions): 3000 times
